Experimental data reported in patent US20250170200A1, “COMPOSITION COMPRISING COFFEE EXTRACT FOR SUPPRESSING POSTPRANDIAL BLOOD SUGAR RISE” (PYXIS INC., priority 2022, published 2025).
Entries after “also recorded” stand apart in the source; their conditions may differ.

Legend:
[1] = test system: rat intestinal α-glucosidase; test: Rat intestinal α-glucosidase inhibition assay; format: biochemical; conditions: in words, FIG. 1 and FIG. 2
Procedure: • Enzyme: rat small intestinal acetone powder • Substrate: PNP-glycoside (pNPG, p-Nitrophenyl α-Dglucopyranoside) 150 mg of rat small intestine acetone powder was added to 9 ml of 0.1 M sodium phosphate buffer (pH 6.9; including 0.9% sodium chloride), ultrasonicated 12 times in an ice water bath for 30 seconds, and then centrifuged at 13,000 rpm and 4° C. for 3 minutes. After centrifugation, a supernatant was collected and used in rat intestinal α-glucosidase inhibition assay. 100 μl of a rat α-glucosidase solution and 50 μl of a sample solution were added and reacted at 37° C. for 10 minutes, and then 50 μl of 5 mM pNPG solution was added thereto to react the mixture at 37° C. for 10 minutes. After completion of the reaction, inhibitory activity against rat intestinal α-glucosidase was analyzed by measuring absorbance at 405 nm by using an ELISA reader. The sample solution used in the experiment was prepared as follows. The hot-water extract was centrifuged (8000 rpm, 30 min), the supernatant was filtered through a filter paper (90 mm/Whatman™), and the filtrate was concentrated to 60 to 150 ml and freeze-dried to produce extract powder. 100 mg of powder was mixed with 1 L of water to prepare a sample solution.

[2] = test system: SD rat; test: Postprandial blood sugar rise suppression after starch administration; format: in vivo
Procedure: (§1) An SD rat, a 5-week-old male, was purchased from RAONBIO, bred in an animal breeding room, and only healthy animals at 6 weeks of age were selected and used in the experiment. After fasting the experimental animals for 24 hours or longer before the experiment, the coffee extract was administered at a concentration of 0.5 g/kg to 2 g/kg body weight of sucrose or starch, and the sample was orally administered using a zonde for oral administration. The administration group was 6 groups, 6 per each group. The blood was collected from the rat tail vein at 30, 60 and 120 minutes after oral administration, and changes in blood sugar concentration in the venous blood were measured using a blood sugar meter ([…]).

[3] = target: T1, porcine pancreatic α-amylase (Sus scrofa, UniProt P00690); test: Porcine pancreatic α-amylase inhibition assay; format: biochemical; conditions: at a concentration of 25 mM/ml, FIG. 4
T1 sequence (P00690 16-511): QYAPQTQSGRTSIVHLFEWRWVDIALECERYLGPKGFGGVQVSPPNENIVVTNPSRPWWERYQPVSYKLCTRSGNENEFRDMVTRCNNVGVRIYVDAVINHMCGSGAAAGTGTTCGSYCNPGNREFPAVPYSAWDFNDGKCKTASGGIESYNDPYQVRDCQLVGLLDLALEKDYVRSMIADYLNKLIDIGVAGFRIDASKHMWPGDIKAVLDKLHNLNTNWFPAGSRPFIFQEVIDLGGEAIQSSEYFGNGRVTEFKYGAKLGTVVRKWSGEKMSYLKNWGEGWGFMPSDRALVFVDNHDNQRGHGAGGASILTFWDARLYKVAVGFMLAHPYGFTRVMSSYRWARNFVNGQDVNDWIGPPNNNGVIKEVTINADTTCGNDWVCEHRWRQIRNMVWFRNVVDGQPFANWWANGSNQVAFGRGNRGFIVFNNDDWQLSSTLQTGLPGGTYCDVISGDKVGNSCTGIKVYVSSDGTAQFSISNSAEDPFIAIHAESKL
Procedure: • Enzyme: porcine pancreatic α-amylase • Substrate: 1% starch solution in 0.02 M sodium phosphate buffer (pH 6.9) • Coloring Reagent: 3,5-dinitrosalicylic acid solution (DNS) in 2 M NaOH with 30% sodium potassium tartrate tetrahydrate
200 μl of a sample solution was added to 300 μl of a porcine pancreatic α-amylase solution having a concentration of 10 U, which is dissolved in a 0.02 M sodium phosphate buffer (pH 6.9; including 0.006 M sodium chloride), and incubated at 25° C. for 10 minutes.
500 μl of a 1% starch solution, which was pre-cultured at 25° C. for 10 minutes, was added to the solution, and the mixture was reacted at 25° C. for 10 minutes.
1 ml of a 1% DNS solution dissolved in 30% Rochelle salt was added and treated in boiling water bath for 5 minutes and cooled to room temperature, and 10 ml of distilled water was added to the resultant.
The absorbance of a reaction solution of the DNS solution and sugar decomposed from the substrate by α-amylase was measured at 540 nm by using an ELISA reader.

[4] = test system: SD rat; test: Postprandial blood sugar rise suppression after sucrose administration; format: in vivo; conditions: for postprandial blood sugar: sucrose
Procedure: as §1

[5] = 0.1 g/kg of chlorogenic acid, 30 minutes
[6] = 0.1 g/kg of chlorogenic acid, 60 minutes (first value of 'from 30 minutes to 2 hours')
[7] = 0.1 g/kg of chlorogenic acid, 120 minutes (2 hours)
[8] = 0.5 g/kg of chlorogenic acid, 30 minutes
[9] = 0.5 g/kg of chlorogenic acid, 60 minutes (first value of 'from 30 minutes to 2 hours')
[10] = 0.5 g/kg of chlorogenic acid, 120 minutes (2 hours)

Row | Compound | inhibitory activity against rat intestinal α-glucosidase [1] | blood sugar [2, 5] [mg/dL] | blood sugar [2, 6] [mg/dL] | blood sugar [2, 7] [mg/dL] | blood sugar [2, 8] [mg/dL] | blood sugar [2, 9] [mg/dL] | blood sugar [2, 10] [mg/dL] | inhibitory activity against α-amylase [3] | effect on postprandial blood sugar rise after sucrose intake ([4]; in words) | postprandial blood sugar [4, 5] [mg/dL] | postprandial blood sugar [4, 6] [mg/dL] | postprandial blood sugar [4, 7] [mg/dL] | postprandial blood sugar [4, 8] [mg/dL] | postprandial blood sugar [4, 9] [mg/dL] | postprandial blood sugar [4, 10] [mg/dL]
1 | O=C(O)/C=C/c1ccc(O)c(O)c1 [caffeic acid] | increases in dependence on the concentration | – | – | – | – | – | – | – | – | – | – | – | – | – | –
2 | O=C(/C=C/c1ccc(O)c(O)c1)O[C@@H]1C[C@](O)(C(=O)O)C[C@@H](O)[C@H]1O [chlorogenic acid] | increases in dependence on the concentration; also recorded: the most excellent | 239.00 ± 25.86 | 137.33 ± 10.46 | 126.08 ± 10.75 | 225.17 ± 18.37 | 137.23 ± 9.58 | 126.46 ± 12.1 | excellent inhibitory activity | effect of suppressing postprandial blood sugar rise | 184.93 ± 8.24 | 174.00 ± 16.67 | 147.38 ± 10.86 | 131.29 ± 14.47 | 130.64 ± 10.90 | 120.69 ± 13.77
3 | O=C(O)[C@]1(O)C[C@@H](O)[C@@H](O)[C@H](O)C1 [quinic acid] | increases in dependence on the concentration | – | – | – | – | – | – | excellent inhibitory activity | – | – | – | – | – | – | –
